The target in series [1] is A isoform of the insulin receptor (Homo sapiens, UniProt P06213). The series is classed as binding. On the procedure:
The receptor binding affinity of analogue 81-04 and analogue 4SS 81-04 was also determined. The affinity of 4SS 81-04 for the A isoform of the insulin receptor was determined to be 120±20 percent relative to human insulin (and may in fact be the same as wild type human insulin given the error present; data not shown). […] Such impaired binding to IGF-1R is desirable from the perspective of potential carcinogenesis on long-term use.

For series [2] the following is noted: in vivo.
Series [3] relates to Sprague-Dawley rats made diabetic with streptozotocin. Put plainly: Stability under extreme conditions (95° C. for 30 min, gentle agitation), read out as glucose lowering after IV bolus in diabetic rats. In kind it is in vivo, rat.
Procedure: Heat stressed insulin was given gentle agitation at 95° C. for 30 min. Doses for SCIs (nominally 1 IU/rat IV) were calculated in equivalent nanomoles protein/μl.
FIG. 3C is a graph of mean blood-glucose concentrations over time in Sprague-Dawley rats made diabetic with streptozotocin after IV bolus injection of fresh or heat-stressed SCIs on gentle agitation at 95° C. for 30 min (N=4; mean glycemia ca. 400 mg/dl). Symbol code: (filled triangle, ▴) fresh SCI-1; (open triangle, ? ) heated SCI-1; (filled square, ? ) fresh insulin lispro as positive control and (filled circle, ? ) Lilly diluent (i.e., buffer only) as negative control. Doses for SCIs (nominally 1 IU/rat IV) were calculated in equivalent nanomoles protein/μl.
FIG. 3D is a graph of the change in blood-glucose concentrations normalized to initial blood glucose concentration over time in Sprague-Dawley rats made diabetic with streptozotocin after IV bolus injection of fresh or heat-stressed SCIs on gentle agitation at 95° C. for 30 min (N=4; mean glycemia ca. 400 mg/dl). Symbol code: (filled triangle, ▴) fresh SCI-1; (open triangle, ? ) heated SCI-1; (filled square, ? ) fresh insulin lispro as positive control; and (filled circle, ? ) Lilly diluent (i.e., buffer only) as negative control. Doses for SCIs (nominally 1 IU/rat IV) were calculated in equivalent nanomoles protein/μl.
To evaluate the biological activity, potency, duration of signaling, and thermal stability of the analogues in an animal model, male Sprague-Dawley rats (mean body mass ˜300 grams) were rendered diabetic by treatment with streptozotocin (STZ). […] A control was provided by injection of protein-free Lilly diluent (obtained from Eli Lilly and Co.) composed of 16 mg glycerin, 1.6 mg meta-cresol, 0.65 mg phenol, and 3.8 mg sodium phosphate pH 7.4. The activity of SCI-1 was evaluated in relation to that of Humalog® (U-100 strength taken from an unexpired commercial vial). […] Blood was obtained from the clipped tip of the tail at time 0 and every 10 minutes up to 360 min. […]

Positions of bridges follow the written chain, without caps; N, C: chain ends. No end group written: not given here.

A isoform of the insulin receptor, sequence (P06213 28-746 isoform P06213-2 limits assumed): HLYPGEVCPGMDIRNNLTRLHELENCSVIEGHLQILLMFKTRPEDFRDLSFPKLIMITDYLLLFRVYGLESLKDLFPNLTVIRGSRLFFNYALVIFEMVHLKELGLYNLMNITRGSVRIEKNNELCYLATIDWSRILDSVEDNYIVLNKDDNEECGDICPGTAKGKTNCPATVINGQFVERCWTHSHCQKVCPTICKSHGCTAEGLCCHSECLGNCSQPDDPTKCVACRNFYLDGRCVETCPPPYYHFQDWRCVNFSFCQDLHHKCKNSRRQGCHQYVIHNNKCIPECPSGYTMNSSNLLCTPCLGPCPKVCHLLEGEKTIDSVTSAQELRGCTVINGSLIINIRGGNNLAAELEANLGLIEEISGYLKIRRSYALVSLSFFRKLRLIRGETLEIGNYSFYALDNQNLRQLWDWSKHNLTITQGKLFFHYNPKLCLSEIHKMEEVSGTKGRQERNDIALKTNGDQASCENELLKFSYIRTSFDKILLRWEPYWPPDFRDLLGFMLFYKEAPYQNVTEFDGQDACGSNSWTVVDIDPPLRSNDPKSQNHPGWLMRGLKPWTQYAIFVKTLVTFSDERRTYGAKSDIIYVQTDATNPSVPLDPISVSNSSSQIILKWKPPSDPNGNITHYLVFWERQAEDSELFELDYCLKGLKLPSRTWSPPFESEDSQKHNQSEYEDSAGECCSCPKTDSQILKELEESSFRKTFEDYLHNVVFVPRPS
A isoform of the insulin receptor, sequence (P06213 763-1382 partner limits assumed): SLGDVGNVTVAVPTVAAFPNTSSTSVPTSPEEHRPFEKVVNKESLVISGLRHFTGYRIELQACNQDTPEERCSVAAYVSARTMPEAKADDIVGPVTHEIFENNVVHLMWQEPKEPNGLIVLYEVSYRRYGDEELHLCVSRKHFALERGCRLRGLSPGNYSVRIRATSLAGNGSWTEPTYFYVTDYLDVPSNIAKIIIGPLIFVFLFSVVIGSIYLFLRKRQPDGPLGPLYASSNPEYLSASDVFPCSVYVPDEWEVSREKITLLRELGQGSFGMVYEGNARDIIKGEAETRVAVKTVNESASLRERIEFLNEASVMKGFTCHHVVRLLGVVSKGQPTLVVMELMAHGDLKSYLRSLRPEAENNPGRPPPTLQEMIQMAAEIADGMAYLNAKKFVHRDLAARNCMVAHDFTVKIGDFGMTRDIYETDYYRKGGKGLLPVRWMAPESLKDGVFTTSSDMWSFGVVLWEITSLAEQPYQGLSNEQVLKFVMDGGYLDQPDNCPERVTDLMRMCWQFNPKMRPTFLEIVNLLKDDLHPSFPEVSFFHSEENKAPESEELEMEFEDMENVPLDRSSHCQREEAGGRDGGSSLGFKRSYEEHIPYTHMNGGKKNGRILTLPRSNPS

As to “FVNCHLCGSHLVEALYLVCGERGFFYTDPTEEGPRRGIVEQCCHSCCSLEQLENYCN (disulfide 4-46, 7-43, 19-56, 42-47) [SCI-2]”, the “affinity for the A isoform of the insulin receptor relative to human insulin” value in series [1] amounted to 120±20%.
On to “FVNCHLCGSHLVEALYLVCGERGFFYTPRTEEGSRRSRGIVEQCCRSCCSLYQLENYCN (disulfide 4-48, 7-45, 19-58, 44-49) [SCI-1]”, for which, in series [2], the “PK on conventional SQ injection” value is recorded as “prolonged PK”.
As for “SCI-1 without 4SS: Preliminary version of SCI-1 lacking the 4th disulfide bridge, with Gln at position B4 and Ile at position A10 (FVNQHLCGSHLVEALYLVCGERGFFYTDPTEEGPRRGIVEQCCHSICSLEQLENYCN; disulfide (positions not given here); ends not checked)”, in series [3] (95° C. for 30 min, time point 240 min), the “decrement in activity of heated versus fresh sample at 240 min” value is on record as “ca. 25%”. In addition, the “decrement in activity of heated versus fresh sample at 300 min” value in series [3] (95° C. for 30 min, time point 300 min) is ~40%. In addition, the “activity after 30 min at 95° C. versus fresh sample” value in series [3] (heat-stressed with gentle agitation at 95° C. for 30 min, nominally 1 IU/rat, N=4) is given as “largely (but incompletely) maintained”.
